# According to patent publication US4200635A, “Antibacterially active amides” (Beecham Group Limited, priority 1977, dated 1980):
# Where two headings read alike, the source gives them in different places.
# Legend:
# [1] = system: Haemophilus influenzae Q1; assay: MIC, serial dilution in nutrient agar, human bacteria; assay type: cell-based; settings: nutrient agar containing 5% chocolated horse blood
# [2] = system: Haemophilus influenzae Wy21; assay: as above; assay type: cell-based; settings: Haemophilus influenzae, WY21
# M. pneumoniae ATCC 15492 = assay: in vitro MIC, anti-mycoplasmal activity; assay type: cell-based; settings: Mycoplasmoides pneumoniae, ATCC15492, Friis' broth, microtiter method
# Text: (§1) Tables 3 and 4 show the in vitro MIC values (μg/ml) of the compounds of Examples 1 to 9 against a number of mycoplasma organisms, determined in Friis' broth using the microtiter method.
# M. fermentans MWKL4 = assay: in vitro MIC, anti-mycoplasmal activity; assay type: cell-based; settings: Mycoplasmopsis fermentans, Friis' broth, microtiter method
# Text: as §1
# [3] = system: M. suipneumoniae J2206/183b; assay: in vitro MIC, anti-mycoplasmal activity; assay type: cell-based; settings: Mesomycoplasma hyopneumoniae, Friis' broth, microtiter method
# Text: as §1
# M. pulmonis JB = assay: in vitro MIC, anti-mycoplasmal activity; assay type: cell-based; settings: Mycoplasmopsis pulmonis, Friis' broth, microtiter method
# Text: as §1
# M. dispar NCTC 10125 = assay: in vitro MIC, anti-mycoplasmal activity; assay type: cell-based; settings: Friis' broth, microtiter method
# Text: as §1
# Staph. aureus Russell = assay: MIC, serial dilution in nutrient agar, human bacteria; assay type: cell-based; settings: Staphylococcus aureus
# [4] = system: Strep. dysgalactiae SPD 1; assay: MIC, veterinary bacteria; assay type: cell-based; settings: Streptococcus dysgalactiae, SPD1
# M. suipneumoniae Str. 11 = assay: in vitro MIC, anti-mycoplasmal activity; assay type: cell-based; settings: Mesomycoplasma hyopneumoniae, Friis' broth, microtiter method
# Staph. aureus 152 = assay: MIC, veterinary bacteria; assay type: cell-based; settings: Staphylococcus aureus
# Staph. aureus B4 = assay: MIC, veterinary bacteria; assay type: cell-based; settings: Staphylococcus aureus
# [5] = system: Neisseria catarrhalis 1502; assay: MIC, serial dilution in nutrient agar, human bacteria; assay type: cell-based
# Past. haemolytica PA5 = assay: MIC, veterinary bacteria; assay type: cell-based; settings: Mannheimia haemolytica
# Bord. bronchiseptica BO9 = assay: MIC, veterinary bacteria; assay type: cell-based; settings: Bordetella bronchiseptica
# M. pneumoniae 427a = assay: in vitro MIC, anti-mycoplasmal activity; assay type: cell-based; settings: Mycoplasmoides pneumoniae, Friis' broth, microtiter method
# Strep. uberis SPU 1 = assay: MIC, veterinary bacteria; assay type: cell-based; settings: Streptococcus uberis, SPU1
# Bacillus subtilis 6633 = assay: MIC, serial dilution in nutrient agar, human bacteria; assay type: cell-based
# Past. multocida PAI = assay: MIC, veterinary bacteria; assay type: cell-based; settings: Pasteurella multocida
# Staph. aureus Oxford = assay: MIC, serial dilution in nutrient agar, human bacteria; assay type: cell-based; settings: Staphylococcus aureus
# [6] = system: Pasteurella multocida 1633; assay: as above; assay type: cell-based; settings: nutrient agar containing 5% chocolated horse blood
# M. dispar H225 = assay: in vitro MIC, anti-mycoplasmal activity; assay type: cell-based; settings: M. dispar H225; Friis' broth, microtiter method; read-out: M.I.C.
# Text: as §1
# Strep. pneumoniae CN33 = assay: MIC, serial dilution in nutrient agar, human bacteria; assay type: cell-based; settings: Streptococcus pneumoniae
# Mouse blood levels = assay type: in vivo, male albino mice, CS1 strain; settings: blood, sc, 50 mg/kg subcutaneous
# Description: The blood levels of the 5-ethoxycarbonylpentyl amide of monic acid A were measured after subcutaneous dosing to male albino mice.
# Species: Albino male mice 18-22 g CS1 strain.
# Routes: Subcutaneous and oral.
# Dose: 50 mg/kg. This compound was supplied as an oil. It was administered as a solution in 10% DMF v/v in PBS or water.
# Assay: Neisseria catarrhalis, immediate assay of samples.
# [7] = Staph. aureus Russell, nutrient agar containing 5% chocolated horse blood, read-out: M.I.C.
# [8] = Strep. dysgalactiae SPD 1, read-out: M.I.C.
# [9] = Staph. aureus B4, read-out: M.I.C.
# [10] = Past. haemolytica PA5, read-out: M.I.C.
# [11] = Bord. bronchiseptica BO9, read-out: M.I.C.
# [12] = Strep. uberis SPU 1, read-out: M.I.C.
# [13] = Past. multocida PAI, read-out: M.I.C.
# [14] = Neisseria catarrhalis 1502, nutrient agar containing 5% chocolated horse blood, read-out: M.I.C.
# [15] = Bacillus subtilis 6633, nutrient agar containing 5% chocolated horse blood, read-out: M.I.C.
SMILES,MIC [1] [µg/mL],MIC (M. fermentans MWKL4) [µg/mL],MIC [3] [µg/mL],MIC (M. pulmonis JB) [µg/mL],MIC (M. dispar NCTC 10125) [µg/mL],MIC (Staph. aureus Russell; [7]) [µg/mL],"MIC [4, 8] [µg/mL]",MIC (M. suipneumoniae Str. 11) [µg/mL],MIC (Staph. aureus 152) [µg/mL],MIC (Staph. aureus B4; [9]) [µg/mL],MIC (Past. haemolytica PA5; [10]) [µg/mL],MIC (Bord. bronchiseptica BO9; [11]) [µg/mL],MIC (M. pneumoniae 427a) [µg/mL],MIC (Strep. uberis SPU 1; [12]) [µg/mL],MIC (Past. multocida PAI; [13]) [µg/mL],MIC (Staph. aureus Oxford) [µg/mL],MIC [6] [µg/mL],MIC (M. dispar H225) [µg/mL],"MIC [5, 14] [µg/mL]",MIC (Bacillus subtilis 6633; [15]) [µg/mL],other results
"COC(=O)CCCCCCCCNC(=O)C=C(C)CC1OCC(CC2OC2C(C)C(C)O)C(O)C1O (stereo not drawn) [Example 7, 8-Methoxycarbonyloctylamide of monic acid A]",0.5,< 0.02,10,< 0.02,0.156,25,0.0625,1.25,8,4,8,2,10,0.125,1,10,1,–,–,–,"MIC [2]: 0.5 µg/mL; MIC (M. pneumoniae ATCC 15492): 10 µg/mL; MIC ([5]; Neisseria, 1502): 0.1 µg/mL; MIC (Bacillus subtilis 6633; Bacillus subtilis, 6633): 2.5 µg/mL"
"C=CCNC(=O)C=C(C)CC1OCC(CC2OC2C(C)C(C)O)C(O)C1O (stereo not drawn) [Example 8, Allylamide of monic acid A]",> 100,0.039,1.25,0.039,0.078,100,0.156,0.625,20,5,0.625,1.25,10,0.625,1.25,–,0.05,0.078,100,2.5,"MIC (Strep. pneumoniae CN33; Strep. pneumoniae CN33, nutrient agar containing 5% chocolated horse blood, read-out: M.I.C.): 5 µg/mL; MIC (Staph. aureus Oxford; Staph. aureus Oxford, nutrient agar containing 5% chocolated horse blood, read-out: M.I.C.): 2.5 µg/mL"
"COC(=O)CCCCCNC(=O)C=C(C)CC1OCC(CC2OC2C(C)C(C)O)C(O)C1O (stereo not drawn) [Example 9, 5-Methoxycarbonylpentylamide of monic acid A]",0.2,0.039,1.25,0.039,0.312,–,–,0.625,20,20,10,–,5,–,10,25,0.2,0.312,< 0.02,10,MIC (Staph. aureus Russell): 100 µg/mL; MIC [4]: 0.312 µg/mL; MIC (Strep. pneumoniae CN33; CN33): 2.5 µg/mL; MIC (Bord. bronchiseptica BO9; BO9): 10 µg/mL; MIC (Strep. uberis SPU 1): 0.625 µg/mL
"COC(=O)CCNC(=O)C=C(C)CC1OCC(CC2OC2C(C)C(C)O)C(O)C1O (stereo not drawn) [Example 10, 2-Methoxycarbonylethylamide of monic acid A]",–,–,–,–,–,–,20,–,–,–,–,–,–,–,–,–,–,–,–,–,MIC (Staph. aureus B4; B4): 80 µg/mL; MIC (Past. haemolytica PA5; PA5): 5 µg/mL; MIC (Bord. bronchiseptica BO9; BO9): 20 µg/mL; MIC (Strep. uberis SPU 1): 2.5 µg/mL; MIC (Past. multocida PAI): 0.625 µg/mL
"C/C(=C\C(=O)OCCCCCCCCC(=O)O)C[C@@H]1OC[C@H](C[C@@H]2O[C@H]2[C@@H](C)[C@H](C)O)[C@@H](O)[C@H]1O [Pseudomonic Acid, reference compound]",–,–,–,–,–,–,–,–,–,–,–,–,–,–,–,–,–,–,–,–,"concentration at 5 min (Mouse blood levels; 5 minutes after dosing, mean of 5 experiments, assay Neisseria catarrhalis, read-out: Concentration (blood level)): 8200 ng/mL; concentration at 10 min (Mouse blood levels; 10 minutes after dosing, mean of 5 experiments, assay Neisseria catarrhalis, read-out: Concentration (blood level)): 3700 ng/mL; concentration at 20 min (Mouse blood levels; 20 minutes after dosing, mean of 5 experiments, assay Neisseria catarrhalis, read-out: Concentration (blood level)): 1100 ng/mL; concentration at 0.5 h (Mouse blood levels; 30 minutes after dosing, mean of 5 experiments, assay Neisseria catarrhalis, read-out: Concentration (blood level)): 620 ng/mL; concentration at 1 h (Mouse blood levels; 60 minutes after dosing, mean of 5 experiments, assay Neisseria catarrhalis, read-out: Concentration (blood level)): < 500 ng/mL; half-life (Mouse blood levels): 5 min"
